Source: PubChem BioAssay AID256 (DTP/NCI, 2004)
Toxic doses and inconclusive results are not listed. The calls were made as follows: active = survival T/C of 150% or more; inactive = T/C below 125% in these data.

Test system: CD2F1 mice, L1210 leukemia ip, survival T/C
Experiment: NCI In Vivo Anticancer Drug Screen. Data for tumor model L1210 Leukemia (intraperitoneal) in CD2F1 (CDF1) mice
Details: endpoint: mean survival time, higher = longer survival
How it was run: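 In this screen, transplantable tumors were grown in mice given either the compound or its vehicle. Results were expressed as the treated measurement relative to the control measurement.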

[1] = dose: 50.0 mg/kg/injection, schedule: Q01DX009 (ip), vehicle: saline with Tween-80
[2] = dose: 100.0 mg/kg/injection, schedule: Q01DX009 (ip), vehicle: saline with Tween-80
[3] = dose: 200.0 mg/kg/injection, schedule: Q01DX009 (ip), vehicle: saline with Tween-80
[4] = dose: 100.0 mg/kg/injection, schedule: Q04DX003 (ip), vehicle: saline with Tween-80
[5] = dose: 200.0 mg/kg/injection, schedule: Q04DX003 (ip), vehicle: saline with Tween-80
[6] = dose: 400.0 mg/kg/injection, schedule: Q04DX003 (ip), vehicle: saline with Tween-80
[7] = dose: 400.0 mg/kg/injection, schedule: Q01DX009 (ip), vehicle: saline with Tween-80
[8] = dose: 100.0 mg/kg/injection, schedule: Q04DX002 (ip), vehicle: saline with Tween-80
[9] = dose: 200.0 mg/kg/injection, schedule: Q04DX002 (ip), vehicle: saline with Tween-80

Measured: T/C

CCCCC(C(=O)O)c1ccccc1 (stereo not drawn)
inactive: dose: 100.0 mg/kg/injection, schedule: Q01DX009 (ip), vehicle: saline 98 % of control | dose: 200.0 mg/kg/injection, schedule: Q01DX009 (ip), vehicle: saline 98 % of control | dose: 400.0 mg/kg/injection, schedule: Q01DX009 (ip), vehicle: saline 101 % of control

COc1cc(OC)c(NC(=O)Nc2ccc(CCO)cc2)cc1Cl
inactive: [1] 93 % of control | [2] 86 % of control | [3] 93 % of control

Nc1nc2c(ncn2-c2ccc3ccccc3c2)c(=O)[nH]1
inactive: dose: 100.0 mg/kg/injection, schedule: Q01DX001 (ip), vehicle: saline with Tween-80 91 % of control | dose: 200.0 mg/kg/injection, schedule: Q01DX001 (ip), vehicle: saline with Tween-80 88 % of control | dose: 400.0 mg/kg/injection, schedule: Q01DX001 (ip), vehicle: saline with Tween-80 95 % of control

Cc1ccc([N+](=O)[O-])cc1NC(=O)SCCOC(=O)COc1ccc(Cl)cc1
inactive: [4] 98 % of control | [5] 96 % of control | [6] 98 % of control

COc1ccc(Cl)c2c1C(=O)C(=O)N2
inactive: [4] 91 % of control | [5] 98 % of control | [6] 98 % of control

CC(C)(C)OOC(=O)c1ccc([N+](=O)[O-])cc1
inactive: [2] 101 % of control | [3] 97 % of control | [7] 101 % of control

Cc1ccc(C(=O)CC#N)c(C)c1
inactive: [2] 96 % of control | [4] 98 % of control | [5] 112 % of control | [7] 90 % of control | [6] 102 % of control

O=C1c2ccccc2C(=O)c2c(NCCNCCNCCO)ccc(NCCNCCNCCO)c21
inactive: dose: 8.0 mg/kg/injection, schedule: Q01DX009 (ip), vehicle: acid diluted with saline 100 % of control | dose: 16.0 mg/kg/injection, schedule: Q01DX009 (ip), vehicle: acid diluted with saline 96 % of control | dose: 32.0 mg/kg/injection, schedule: Q01DX009 (ip), vehicle: acid diluted with saline 108 % of control | dose: 64.0 mg/kg/injection, schedule: Q01DX009 (ip), vehicle: acid diluted with saline 96 % of control

C#CC(C)OCC1CNC(=S)O1 (stereo not drawn)
inactive: dose: 25.0 mg/kg/injection, schedule: Q01DX009 (ip), vehicle: Klucel (hydroxypropylcellulose) (HPC) 96 % of control | dose: 50.0 mg/kg/injection, schedule: Q01DX009 (ip), vehicle: Klucel (hydroxypropylcellulose) (HPC) 92 % of control | dose: 100.0 mg/kg/injection, schedule: Q01DX009 (ip), vehicle: Klucel (hydroxypropylcellulose) (HPC) 94 % of control | dose: 200.0 mg/kg/injection, schedule: Q01DX009 (ip), vehicle: Klucel (hydroxypropylcellulose) (HPC) 97 % of control | dose: 400.0 mg/kg/injection, schedule: Q01DX009 (ip), vehicle: Klucel (hydroxypropylcellulose) (HPC) 91 % of control

Cc1ccc(S(=O)(=O)OCC2C3CC(c4ccccc43)C2COS(=O)(=O)c2ccc(C)cc2)cc1 (stereo not drawn)
inactive: [8] 102 % of control | [9] 111 % of control | dose: 400.0 mg/kg/injection, schedule: Q04DX002 (ip), vehicle: saline with Tween-80 95 % of control

CC(=O)CC1CC2(CCC1=O)OCCO2 (stereo not drawn)
inactive: [2] 102 % of control | [4] 98 % of control | [3] 96 % of control | [5] 93 % of control | [7] 100 % of control | [6] 102 % of control

CC(=O)CCC(C)=O
inactive: [2] 100 % of control | dose: 100.0 mg/kg/injection, schedule: Q04DX003 (ip), vehicle: saline 97 % of control | [3] 109 % of control | dose: 200.0 mg/kg/injection, schedule: Q04DX003 (ip), vehicle: saline 100 % of control | [7] 100 % of control | dose: 400.0 mg/kg/injection, schedule: Q04DX003 (ip), vehicle: saline 94 % of control

N#CC1=C(C#N)C(=O)c2ccccc2C1=O
inactive: dose: 25.0 mg/kg/injection, schedule: Q01DX009 (ip), vehicle: saline with Tween-80 98 % of control | [1] 97 % of control | [2] 88 % of control

CC(=Nc1ccccc1)C1=C(O)C(Cc2ccc(O)c(O)c2)NC1=O (stereo not drawn)
inactive: dose: 50.0 mg/kg/injection, schedule: Q04DX002 (ip), vehicle: saline with Tween-80 103 % of control | [8] 103 % of control | [9] 100 % of control
